Our source for the GI50 and TGI values is PubChem BioAssay (NCI).

Experiment in all cases: growth of human tumour cells (NCI), 48 h
The test system of assay [1] is A498 renal.
The test system of assay [2] is DU-145 prostate.
The subject of assay [3] is EKVX NSCLC.
The test system of assay [4] is HS 578T breast.
For assay [5], the system named is KM12 colon.
The test system of assay [6] is MDA-MB-435.
Assay [7] relates to NCI-H226 lung.
For assay [8], the system named is RXF 393 renal.
The subject of assay [9] is SK-OV-3 ovarian.
Assay [10] concerns SR leukemia.

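All cell lines were grown in 96-well plates and treated with compound for 48 hours. GI50 marks 50% less growth. Definition used: TGI = concentration required for complete inhibition of growth.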

For the molecule `CCCCC#Cc1c(I)n(C2OC(CO[Si](C)(C)C(C)(C)C)C3OC(C)(C)OC32)c(=O)[nH]c1=O` (configuration not stated), the GI50 in assay [1] was 13.3 µM; in assay [2] it was 3.48 µM; in assay [3] it was 15.3 µM; in assay [4], 11.7 µM; in [5] it was 11.7 µM; in assay [6], 14.6 µM. In addition, the GI50 was 12.7 µM in [7] and 1.5 µM in assay [8]. The TGI in assay [1] was 26 µM; in assay [2] it was 12.9 µM; in assay [3], 28.7 µM; in assay [4] it was 39.6 µM; in assay [5], 24.5 µM; in assay [6] it was 29.8 µM. For the same molecule, the results for the TGI in assay [7] and in assay [8] were 25.6 µM and 5.46 µM, respectively.
Regarding `COc1ccc(-n2cc(-c3ccc(Cl)cc3)[nH]c2=S)cc1Cl`, the GI50 in [2] is 37.2 µM; in [3] it was 42.8 µM; in assay [4] it was 23.8 µM; in assay [5], > 100 µM; in [6], > 100 µM; in [7], 23.7 µM. Also, the GI50 in [8] was 25.6 µM; in assay [9], 23.6 µM. The TGI in assay [2] is > 100 µM; in [3], > 100 µM; in [4] it was 56.6 µM; in [5] it was > 100 µM; in [6], > 100 µM; in assay [7], 65.6 µM. In addition, the TGI in [8] amounted to 54.1 µM; in [9] it was 52.6 µM.
In the case of `O=C(/C=C/c1ccccc1O)CC(=O)/C=C/c1ccccc1O`, the TGI in [1] was 51.3 µM; in assay [2], > 31.6 µM; in assay [3], 31.3 µM; in assay [4], > 31.6 µM; in assay [6], > 31.6 µM; in assay [8] it was 9.06 µM. For the same molecule, the TGI in [10] is > 25 µM.
For `COc1ccc(/C(C#N)=C/c2nc3c(N4CCOCC4)nc(Cl)nc3n2C)cc1OC`, the GI50 in assay [1], in assay [2], in assay [4], in assay [5], in [6] and in assay [9] was < 0.01 µM each time. For the same molecule, in [10], the GI50 was < 0.01 µM. Moreover, the TGI in assay [1] was < 0.01 µM; in assay [2] it was 1.3 µM; in [3], 2.76 µM; in assay [4], 2.68 µM; in [5], 1.26 µM; in assay [6], < 0.01 µM. Also, the values for the TGI in assay [9] and in assay [10] were 5.52 µM and 3.68 µM, respectively.
Regarding `Nc1nc(Cl)cc2c1ncn2C1OC(CO)C(O)C1O` (configuration not stated), the GI50 in [1], in assay [2], in assay [3], in assay [4], in [5] and in assay [6] was > 100 µM each time. Further, the GI50 in assay [8], in assay [9] and in assay [10] was > 100 µM throughout. Further, the TGI in assay [1], in assay [2], in [3], in [4], in assay [5] and in [6] was > 100 µM throughout. Moreover, the TGI in assay [8], in assay [9] and in [10] was > 100 µM throughout.
Consider `Cc1ccc(NC(=O)C(=O)C2C(=O)C3=C(CC2(C)C)NC2C=CC=CC2S3)c(C)c1` (configuration not stated), for which the TGI in assay [2], in assay [3], in assay [4], in assay [5], in assay [6] and in assay [7] was > 100 µM in each case. The TGI in [8] and in [9] was > 100 µM throughout.
As for `CC(C)n1c2c(c3ccccc3c1=O)C(=O)c1ccccc1-2`, the TGI in [1], in [2], in assay [3], in assay [4], in [5] and in [6] was > 100 µM throughout. Besides, the TGI in assay [7], in assay [9] and in assay [10] was > 100 µM in each case.
For the molecule `COC(=O)c1ccc2c(c1)[n+](=O)c(C(C)=O)c(C(F)(F)F)n2[O-]`, the GI50 was 1.72 µM in assay [1]; 1.83 µM in [2]; 1.94 µM in assay [3]; 2.37 µM in assay [4]; 1.76 µM in assay [5]; 1.75 µM in assay [6]. In addition, the GI50 in [7] was 1.95 µM; in assay [8], 2.04 µM; in [9], 2.22 µM. Moreover, the TGI in [1] stood at 3.3 µM; in assay [2], 3.23 µM; in assay [3], 4.35 µM; in [4] it was 5.84 µM; in assay [5], 3.19 µM; in assay [6], 3.6 µM. Besides, the TGI in assay [7] came out at 3.65 µM; in assay [8] it was 3.86 µM; in assay [9] it was 4.48 µM.
`S=c1sc2ccccc2n1CN1CCN(Cc2ccccc2)CC1`: the TGI in assay [1], in assay [2], in [3], in assay [4], in assay [5] and in assay [6] was > 100 µM each time. In addition, the TGI in [7], in assay [8] and in assay [9] was > 100 µM in each case.
As to `COc1ccc(-c2ccc(/C=N/n3cnn(CN4CCN(C)CC4)c3=S)o2)c([N+](=O)[O-])c1`, the GI50 is 38.1 µM in assay [2]; 34.8 µM in assay [3]; 22.5 µM in assay [4]; 33.3 µM in assay [5]; 30.4 µM in assay [6]; 24.4 µM in [8]. The GI50 in assay [9] was 36.4 µM; in [10], 31.5 µM. For the same molecule, the TGI in [2] is > 100 µM; in [3] it was > 100 µM; in assay [4], 75.4 µM; in assay [5] it was > 100 µM; in assay [6] it was 63.1 µM; in [8], > 100 µM. Besides, the TGI in [9] and in assay [10] was > 100 µM in each case.
